From patent publication US20260085058A1, “DEGRADERS OF SON OF SEVENLESS HOMOLOG 1” (H. LEE MOFFITT CANCER CENTER AND RESEARCH INSTITUTE, INC., priority 2022, published 2026)

Target: T1, SOS1 (Homo sapiens, UniProt Q07889)
T1 sequence (Q07889 1-1333): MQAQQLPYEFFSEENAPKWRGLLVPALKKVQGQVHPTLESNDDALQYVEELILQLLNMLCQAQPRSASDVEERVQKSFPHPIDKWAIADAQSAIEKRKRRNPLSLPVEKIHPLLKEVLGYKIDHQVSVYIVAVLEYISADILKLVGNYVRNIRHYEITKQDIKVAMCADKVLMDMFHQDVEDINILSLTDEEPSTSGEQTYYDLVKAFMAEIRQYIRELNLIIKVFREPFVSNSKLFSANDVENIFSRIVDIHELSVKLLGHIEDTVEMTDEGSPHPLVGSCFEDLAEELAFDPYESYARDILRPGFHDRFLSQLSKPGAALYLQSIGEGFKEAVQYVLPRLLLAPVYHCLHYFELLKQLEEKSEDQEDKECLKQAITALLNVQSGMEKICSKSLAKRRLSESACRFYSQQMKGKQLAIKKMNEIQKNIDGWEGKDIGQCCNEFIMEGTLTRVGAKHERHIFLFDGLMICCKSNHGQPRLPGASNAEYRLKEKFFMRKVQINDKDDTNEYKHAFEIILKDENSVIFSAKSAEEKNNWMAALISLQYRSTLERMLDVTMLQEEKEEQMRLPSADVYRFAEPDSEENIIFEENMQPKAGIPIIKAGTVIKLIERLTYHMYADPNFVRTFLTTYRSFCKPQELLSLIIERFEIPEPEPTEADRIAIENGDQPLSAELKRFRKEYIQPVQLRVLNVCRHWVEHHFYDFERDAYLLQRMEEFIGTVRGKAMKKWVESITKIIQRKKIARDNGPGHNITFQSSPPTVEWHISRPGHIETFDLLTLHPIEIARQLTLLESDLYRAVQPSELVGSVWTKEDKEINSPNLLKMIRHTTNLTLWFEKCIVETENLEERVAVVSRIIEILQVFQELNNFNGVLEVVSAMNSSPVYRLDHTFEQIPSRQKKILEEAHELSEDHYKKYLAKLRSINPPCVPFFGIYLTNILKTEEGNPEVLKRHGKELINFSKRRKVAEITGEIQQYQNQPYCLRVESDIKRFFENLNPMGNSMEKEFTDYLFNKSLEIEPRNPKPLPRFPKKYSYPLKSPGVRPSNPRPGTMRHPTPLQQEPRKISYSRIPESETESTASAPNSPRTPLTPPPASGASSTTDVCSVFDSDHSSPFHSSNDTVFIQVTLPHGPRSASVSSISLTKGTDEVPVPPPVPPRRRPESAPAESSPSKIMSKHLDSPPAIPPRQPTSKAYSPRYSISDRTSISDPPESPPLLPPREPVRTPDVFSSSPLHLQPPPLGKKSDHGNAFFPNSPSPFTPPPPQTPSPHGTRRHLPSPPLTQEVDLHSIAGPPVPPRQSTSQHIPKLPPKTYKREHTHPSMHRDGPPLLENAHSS
Test: SOS1 degradation by immunoblot in colorectal cancer cell lines
Format: cell-based
Set-up: endogenous in cells; host or cells: SW620, HCT116, C2BB, SW1417
Conditions: SW620 cells, 1 μM, different time points
Procedure: SW620, HCT116, C2BB, and SW1417 were purchased from the American Type Culture Collection. […] They were incubated under a 5% (v/v) CO2 atmosphere at 37° C.
Cells were plated in a 100 mm dish for incubation overnight before harvest for immunoblot. For drug treatment, cell confluency was checked prior to proceeding with the treatment. […] Approximately 40 μg protein samples were loaded into each well and separated by SDS-PAGE gel. After protein transfer onto nitrocellulose membranes, 5% skim milk in TBST was used to block the membranes for 1 hour at room temperature prior to incubation with primary antibodies overnight at 4° C. At the completion, a horseradish peroxidase-conjugated secondary antibody was applied at room temperature for 1 hour. The bands were visualized using Western Lightning Plus-ECL (PerkinElmer).

## COc1cc2c(N[C@H](C)c3cc(N)cc(C(F)(F)F)c3)nc(C)nc2cc1OCc1cccc2c1C(=O)N(C1CCC(=O)NC1=O)C2=O (stereo partly drawn) [P2, 4-(((4-(((R)-1-(3-amino-S-(trifluoromethyl)phenyl)ethyl)amino)-6-methoxy-2-methylquinazolin-7-yl)oxy)methyl)-2-(2,6-dioxopiperidin-3-yl)isoindoline-1,3-dione]
  Time-dependent SOS1 degradation: not observed
